pKi: −log10 of the molar value.
Target: Cyclin-dependent kinase 2/cyclin E1 (Homo sapiens, UniProt P24941)
Assay: Inhibition of recombinant full length wild-type CDK2/Cyclin E1 (unknown origin) expressed in baculovirus expression system assessed as […] using 5-FAM-QSPKKG-CONH2 peptide as substrate preincubated with enzyme for 15 mins followed by further incubation with ATP for 45 mins by fluorescence-based microfluidic mobility shift assay

SMILES	pKi
Cc1ncc(CC(=O)Nc2cc([C@H]3CC[C@@H](OC(=O)N4C[C@@H](C#N)[C@@H]4C)C3)[nH]n2)s1 (single isomer, unassigned)	9.82
COc1ccc(CC(=O)Nc2cc([C@@H]3CC[C@H](OC(=O)N4CCC4(C)C)C3)[nH]n2)cn1	9.92
CCC(CO)CNC(=O)O[C@@H]1CC[C@H](c2cc(NC(=O)Cc3ccc(OC)nc3)n[nH]2)C1 (single isomer, unassigned)	9.11
COc1ccc(CC(=O)Nc2cc([C@H]3CC[C@@H](OC(=O)N4C[C@@H](C#N)[C@@H]4C)C3)[nH]n2)cn1 (single isomer, unassigned)	9.77

From ChEMBL document CHEMBL4665901, “Novel CDK2 Inhibitors for Treating Cancer” (ACS Med Chem Lett, 2020)
